Results reported in a compilation of properties of binary mixtures (doi:10.1007/s10973-014-3978-x).

Experiment: xn = mol fraction of the nth substance listed
Details: 101 kPa

CC[n+]1ccn(C)c1.F[B-](F)(F)F + O=C1CCCCC1
speed of sound [m/s]
Details	293.15 K	298.15 K	303.15 K	308.15 K
x2 = 0.0789	1623.5	1613.7	1602.6	–
x2 = 0.1407	1616.1	1607.6	1595.3	1581
x2 = 0.1861	1609.9	–	1587.8	1573.9
x2 = 0.2271	1603	1593.7	1580.5	1565.6
x2 = 0.2765	–	–	1570.4	–
x2 = 0.3069	1588.5	–	1563.6	–
x2 = 0.3898	1571.3	1560.2	1543.8	1527.9
x2 = 0.4269	1562.9	–	1534.4	1518.2
x2 = 0.489	1548.9	–	1518.4	1501.3
x2 = 0.5007	1545.9	1532.4	1515	1498.2
x2 = 0.5432	1535.6	–	1503.3	1486.5
x2 = 0.6302	1514.1	1499.3	1480.2	1462.4
x2 = 0.6848	–	1484.9	1465.9	1447.8
x2 = 0.7559	1483.3	1467.5	–	1428.7
x2 = 0.779	1477.4	1461.4	1441.7	1423.1
x2 = 0.8235	1467.2	1450.9	1431.5	1412.3
x2 = 0.8675	1457	1440.8	–	–
x2 = 0.9001	1450.6	1433.9	1414.6	1395

O=C1CCCC1 + CC[n+]1ccn(C)c1.F[B-](F)(F)F
speed of sound [m/s]
Details	293.15 K	298.15 K	303.15 K	308.15 K
x1 = 0.0877	1643.2	1628.4	1615.4	–
x1 = 0.1164	1644.4	1629.3	1615.2	1599.6
x1 = 0.1767	1642	1625.9	1611.6	1595.8
x1 = 0.2302	1633.9	1619.2	–	1588.2
x1 = 0.2879	1622.5	1606.5	–	1576.9
x1 = 0.3434	–	1592.4	1577.1	1562.1
x1 = 0.3887	1593.6	1578.2	–	1548
x1 = 0.478	1562.8	–	1530.1	–
x1 = 0.5114	–	1533.8	1517.1	1502.2
x1 = 0.5878	1522.6	1504.6	1486.7	1470.6
x1 = 0.6115	1513.9	1495.8	1477.3	1460.7
x1 = 0.6411	1503.2	1485	1465.7	1448.7
x1 = 0.6834	–	1469.2	1449.6	1431.7
x1 = 0.7649	1462.6	1441.6	1421.2	1402.3
x1 = 0.7867	1456.3	1435.4	1414.3	1394.6
x1 = 0.8157	–	1427	1405.9	1385.8
x1 = 0.8755	–	1412.3	–	1370.4
x1 = 0.9061	1427.6	1406	1384.4	1363.9
